System: peritoneal carcinomatosis (Pro b cells)
Assay: In vivo anti-tumor activity against peritoneal carcinomatosis in BDIX rats
Conditions: for Number of rats with carcinomatoses of class 0 / Number of rats with carcinomatoses of class 1 / Number of rats with carcinomatoses of class 2 / Number of rats with carcinomatoses of class 3 / Number of rats with carcinomatoses of class 4: 10 rats, 6 weeks; for Number of rats with carcinomatoses of class 0: class 0: no tumor nodules visible; for Number of rats with carcinomatoses of class 1: class 1: a few nodules less than 0.2 cm; for Number of rats with carcinomatoses of class 2: class 2: nodules too many to be counted, up to 0.5 cm; for Number of rats with carcinomatoses of class 3: class 3: tumors up to 1 cm; for Number of rats with carcinomatoses of class 4: class 4: cavity entirely invaded by tumors
Description: The in vivo biological activity of disaccharide A was investigated for anti-tumor activity against peritoneal carcinomatosis induced in BDIX rats. Pro b cells obtained according to the method of Martin (Martin, F. et al, International Journal of Cancer, Volume 32, pages 623-627 [1983]) were injected intraperitoneally in rat (10^6 cells per rat). After 10 days numerous solid nodules appear in the mesenterium in the milky spots and progressively invade the peritoneal cavity (see Lagadec, P. et al, Invasion and Metastasis, Volume 7, pages 83-95 [1987]). Hemorrhagic ascitis appeared after 4-5 weeks and all rats died within 8-12 weeks.
Immunotherapy started 14 days after injection of the tumoral Pro b cells. The treatment consisted of intraperitoneal injections of disaccharide A; doses 0.1, 0.3 and 0.8 mg/kg bodyweight. Disaccharide A was dissolved in an aqueous solution of 0.9% NaCl and 0.1% triethylamine. The rats received five injections once every 3.5 days. A control group was injected with the aqueous solution. Both groups comprised 10 rats.
6 Weeks after the injection of the tumoral cells autopsy was carried out. The extent of peritoneal carcinomatosis was evaluated blindly and the rats were classified in the order of increasing carcinomatosis.
The classification of the nodule size is as follows:
class 0: no tumor nodules visible;
class 1: a few nodules of size less than 0.2 cm;
class 2: nodules too many to be counted size up to 0.5 cm;
class 3: tumors in size up to 1 cm;
class 4: tumoral cavity entirely invaded by tumors, size a few cm.
The statistical significance of the anti-tumoral activity was calculated by the Kruskal-Wallis test (1) or (2) using variance analysis.

## CCCCCCCCCCCC(=O)O[C@H](CCCCCCCCCCC)CC(=O)N[C@H]1[C@H](OC[C@H]2O[C@H](OP(=O)(O)O)[C@H](NC(=O)C[C@H](O)CCCCCCCCCCC)[C@@H](O)[C@@H]2O)O[C@H](CO)[C@@H](OP(=O)(O)O)[C@@H]1O [disaccharide A, 2-Deoxy-6-O-[2-deoxy-2-[(R)-3-dodecanoyloxytetradecanoylamino]-4-O-phosphono-β-D-glucopyranosyl]-2-[(R)-3-hydroxytetradecanoylamino]-α-D-glucopyranosyl dihydrogenphosphate]
0.1 mg/kg i.p.
  Ascitis volume, Average: 7 ± 7 ml/rat
  Ascitis volume, Limits: 0-18 ml/rat
  Number of rats with carcinomatoses of class 0: 0
  Number of rats with carcinomatoses of class 1: 2
  Number of rats with carcinomatoses of class 2: 0
  Number of rats with carcinomatoses of class 3: 4
  Number of rats with carcinomatoses of class 4: 4
0.3 mg/kg i.p.
  Ascitis volume, Average: 2 ± 6 ml/rat
  Ascitis volume, Limits: 0-20 ml/rat
  Number of rats with carcinomatoses of class 0: 2
  Number of rats with carcinomatoses of class 1: 3
  Number of rats with carcinomatoses of class 2: 2
  Number of rats with carcinomatoses of class 3: 2
  Number of rats with carcinomatoses of class 4: 1
0.8 mg/kg i.p.
  Ascitis volume, Average: 0 ± 1 ml/rat
  Ascitis volume, Limits: 0-2 ml/rat
  Number of rats with carcinomatoses of class 0: 1
  Number of rats with carcinomatoses of class 1: 6
  Number of rats with carcinomatoses of class 2: 1
  Number of rats with carcinomatoses of class 3: 1
  Number of rats with carcinomatoses of class 4: 1
Peritoneal carcinomatosis
  Anti-tumoral effect, in words: dose-dependent anti-tumoral effect

— patent US6005099A, “Glucosamine disaccharides, method for their preparation, pharmaceutical composition comprising same, and their use” (priority 1993, dated 1999)
